From ChEMBL document CHEMBL3774318, “Synthesis and antiproliferative activity of goniobutenolides A and B, 5-halogenated crassalactone D derivatives and the corresponding 7-epimers” (Eur J Med Chem, 2016) come the findings set out here.

The IC50 is the concentration that gives 50% inhibition.

Assay [1] can be described thus: Cytotoxicity against human HL60 cells assessed as cell growth inhibition after 72 hrs by MTT assay. The format is functional, cell-based. The settings on record: HL-60, 72 h. Background: Formazan colour is commonly taken as a measure of viable cells.
Assay [2] in a line: Cytotoxicity against human Jurkat T cells assessed as cell growth inhibition after 72 hrs by MTT assay. The format is functional, cell-based.

As for `COc1cccc2c1C(=O)c1c(O)c3c(c(O)c1C2=O)C[C@@](O)(C(=O)CO)C[C@@H]3O[C@H]1C[C@H](N)[C@H](O)[C@H](C)O1` [DOXORUBICIN], the values for the IC50 in assay [1] and in assay [2] were 920 nM and 30 nM, respectively.
